Our source for the Hepatotoxicity values is ChEMBL document CHEMBL1697692, “Developing structure-activity relationships for the prediction of hepatotoxicity” (Chem Res Toxicol, 2010).

Bridge positions count the residues as written; N and C are the ends. Square brackets hold non-standard residues; d marks the D form. Peptide text beside a SMILES is read from it. * marks the point of attachment. Ileψ(thiazoline)Cys = CC[C@H](C)[C@H](N)C1=N[C@H](C(=O)*)CS1; dOrn = NCCC[C@@H](N)C(=O)O

The data set relates to Hepatotoxicity. The experiment in a line: Literature-mined public compounds from Greene et al multi-species hepatotoxicity modelling dataset.
With `NCCCCCC(=O)O` [AMINOCAPROIC ACID], the Hepatotoxicity entry is “NE: No evidence of hepatotoxicity in any species”. The value for `CCC1(c2ccc(N)cc2)CCC(=O)NC1=O` (configuration not stated) [AMINOGLUTETHIMIDE] was “NE: No evidence of hepatotoxicity in any species”; that for `Nc1ccc(C(=O)O)c(O)c1` [AMINOSALICYLIC ACID] was “HH: Evidence of human hepatotoxicity”; that for `CCCCc1oc2ccccc2c1C(=O)c1cc(I)c(OCCN(CC)CC)c(I)c1` [AMIODARONE] was “HH: Evidence of human hepatotoxicity”. The value for `CN(C)CCC=C1c2ccccc2CCc2ccccc21.Cl` [AMITRIPTYLINE HYDROCHLORIDE] was “WE: Weak evidence (<10 case reports) of human hepatotoxicity”; that for `Cl.N` [AMMONIUM CHLORIDE] was “NE: No evidence of hepatotoxicity in any species”; that for `Clc1ccc2c(c1)C(N1CCNCC1)=Nc1ccccc1O2` [AMOXAPINE] was “WE: Weak evidence (<10 case reports) of human hepatotoxicity”.

Take `CC1(C)S[C@@H]2[C@H](NC(=O)[C@H](N)c3ccc(O)cc3)C(=O)N2[C@H]1C(=O)O` [AMOXICILLIN]: the Hepatotoxicity result is reported as “WE: Weak evidence (<10 case reports) of human hepatotoxicity”. The value for `C[C@@H]1[C@H](O)[C@@H](C)/C=C/C=C/C=C/C=C/C=C/C=C/C=C/[C@H](O[C@@H]2O[C@H](C)[C@@H](O)[C@H](N)[C@@H]2O)C[C@@H]2O[C@](O)(C[C@@H](O)C[C@@H](O)[C@H](O)CC[C@@H](O)C[C@@H](O)CC(=O)O[C@H]1C)C[C@H](O)[C@H]2C(=O)O` [AMPHOTERICIN B] was “WE: Weak evidence (<10 case reports) of human hepatotoxicity”; that for `COc1cc(NS(C)(=O)=O)ccc1Nc1c2ccccc2nc2ccccc12.Cl` [AMSACRINE HYDROCHLORIDE] was “HH: Evidence of human hepatotoxicity”; that for `CCOC(=O)C1(c2ccccc2)CCN(CCc2ccc(N)cc2)CC1.Cl` [ANILERIDINE HYDROCHLORIDE] was “NE: No evidence of hepatotoxicity in any species”.

Turning to `N=C(N)NCCC[C@H](N)C(=O)O` [ARGININE], the Hepatotoxicity entry is “NE: No evidence of hepatotoxicity in any species”. The value for `O=[As][As+](=O)[O-]` (configuration not stated) [ARSENIC TRIOXIDE] was “HH: Evidence of human hepatotoxicity”; that for `O=C1O[C@H]([C@@H](O)CO)C(O)=C1O` [ASCORBIC ACID] was “NE: No evidence of hepatotoxicity in any species”; that for `COc1ccc(CCN2CCC(Nc3nc4ccccc4n3Cc3ccc(F)cc3)CC2)cc1` [ASTEMIZOLE] was “NE: No evidence of hepatotoxicity in any species”. As for `CC(C)NCC(O)COc1ccc(CC(N)=O)cc1` (configuration not stated) [ATENOLOL], the Hepatotoxicity entry is “NE: No evidence of hepatotoxicity in any species”. As for `CNCC[C@@H](Oc1ccccc1C)c1ccccc1` [ATOMOXETINE], the entry is “HH: Evidence of human hepatotoxicity”; as for `C=C1[C@@H]2CCC3[C@@](CC[C@@H]4[C@H](C(=O)O)C[C@@H](O[C@@H]5O[C@H](CO)[C@@H](OS(=O)(=O)[O-])[C@H](OS(=O)(=O)[O-])[C@H]5OC(=O)CC(C)C)C[C@@]34C)(C2)[C@@H]1O.[K+].[K+]` (some centres not stated) [ATRACTYLOSIDE], “HH: Evidence of human hepatotoxicity”. As for `Nc1ncn([C@@H]2O[C@H](CO)[C@@H](O)[C@H]2O)c(=O)n1` [AZACITIDINE], the entry is “HH: Evidence of human hepatotoxicity”; as for `Cl.Cl.O=C(CCN1CCN2CCCC2C1)N1c2ccccc2Sc2ccc(Cl)cc21` (configuration not stated) [AZACLORZINE HYDROCHLORIDE], “HH: Evidence of human hepatotoxicity”; as for `[N-]=[N+]=CC(=O)OC[C@H](N)C(=O)O` [AZASERINE], “AH: Evidence for animal hepatotoxicity but not tested in humans”. As for `CN1CCC(=C2c3ccccc3CCc3cccnc32)CC1.O=C(O)/C=C\C(=O)O.O=C(O)/C=C\C(=O)O` [AZATADINE MALEATE], the Hepatotoxicity entry was “HH: Evidence of human hepatotoxicity”. Regarding `Cn1cnc([N+](=O)[O-])c1Sc1ncnc2nc[nH]c12` [AZATHIOPRINE], the Hepatotoxicity result is “HH: Evidence of human hepatotoxicity”. The value for `CC[C@H]1OC(=O)[C@H](C)[C@@H](O[C@H]2C[C@@](C)(OC)[C@@H](O)[C@H](C)O2)[C@H](C)[C@@H](O[C@@H]2O[C@H](C)C[C@H](N(C)C)[C@H]2O)[C@](C)(O)C[C@@H](C)CN(C)[C@H](C)[C@@H](O)[C@]1(C)O` [AZITHROMYCIN] was “WE: Weak evidence (<10 case reports) of human hepatotoxicity”; that for `CC1(C)S[C@@H]2[C@H](NC(=O)[C@H](NC(=O)N3CCNC3=O)c3ccccc3)C(=O)N2[C@H]1C(=O)[O-].[Na+]` [AZLOCILLIN SODIUM] was “NE: No evidence of hepatotoxicity in any species”; that for `C[C@H]1[C@H](NC(=O)/C(=N\OC(C)(C)C(=O)O)c2csc(N)n2)C(=O)N1S(=O)(=O)O` [AZTREONAM] was “NE: No evidence of hepatotoxicity in any species”.

As for `CC[C@H](C)[C@H](N)C1=N[C@H](C(=O)N[C@@H](CC(C)C)C(=O)N[C@H](CCC(=O)O)C(=O)N[C@H](C(=O)N[C@H]2CCCCNC(=O)[C@H](CC(N)=O)NC(=O)[C@@H](CC(=O)O)NC(=O)[C@H](Cc3cnc[nH]3)NC(=O)[C@@H](Cc3ccccc3)NC(=O)[C@H]([C@@H](C)CC)NC(=O)[C@@H](CCCN)NC2=O)[C@@H](C)CC)CS1` [BACITRACIN] ({Ileψ(thiazoline)Cys}-L[dE]IK[dOrn]I[dF]H[dD]N; lactam 4-C), the Hepatotoxicity entry is on record as “NE: No evidence of hepatotoxicity in any species”. As for `CN(C)C(=O)Oc1cc(OC(=O)N(C)C)cc(C(O)CNC(C)(C)C)c1` (configuration not stated) [BAMBUTEROL], the entry is “NE: No evidence of hepatotoxicity in any species”; as for `CCC(=O)OCC(=O)[C@@]1(OC(=O)CC)[C@@H](C)C[C@H]2[C@@H]3CCC4=CC(=O)C=C[C@]4(C)[C@@]3(Cl)[C@@H](O)C[C@@]21C` [BECLOMETHASONE DIPROPIONATE], “NE: No evidence of hepatotoxicity in any species”; as for `CCOC(=O)[C@H](CCc1ccccc1)N[C@H]1CCc2ccccc2N(CC(=O)O)C1=O` [BENAZEPRIL], “WE: Weak evidence (<10 case reports) of human hepatotoxicity”. As for `CC(C(=O)O)c1ccc2oc(-c3ccc(Cl)cc3)nc2c1` (configuration not stated) [BENOXAPROFEN], the Hepatotoxicity result is listed as “HH: Evidence of human hepatotoxicity”.

On to `CCc1oc2ccccc2c1C(=O)c1cc(Br)c(O)c(Br)c1` [BENZBROMARONE], for which the Hepatotoxicity entry is given as “HH: Evidence of human hepatotoxicity”. The value for `CC(C)COCC(CN(Cc1ccccc1)c1ccccc1)N1CCCC1.Cl.O` (configuration not stated) [BEPRIDIL HYDROCHLORIDE] was “HH: Evidence of human hepatotoxicity”; that for `CNCCc1ccccn1.Cl.Cl` [BETAHISTINE HYDROCHLORIDE] was “HH: Evidence of human hepatotoxicity”. As for `C[N+](C)(C)CC(=O)O.[Cl-]` [BETAINE HYDROCHLORIDE], the entry is “NE: No evidence of hepatotoxicity in any species”; as for `C[C@H]1C[C@H]2[C@@H]3CCC4=CC(=O)C=C[C@]4(C)[C@@]3(F)[C@@H](O)C[C@]2(C)[C@@]1(O)C(=O)CO` [BETAMETHASONE], “NE: No evidence of hepatotoxicity in any species”; as for `CC(C)(Oc1ccc(CCNC(=O)c2ccc(Cl)cc2)cc1)C(=O)O` [BEZAFIBRATE], “NE: No evidence of hepatotoxicity in any species”.
